≈ marks a conversion by molar mass, not a printed value. Read-outs that look alike come from different tables or passages of the source.
Test: Solvent mixture solubility tests of (Z)-endoxifen
Type: physicochemical
Procedure: To test the solubility of (Z)-endoxifen in varying conditions, 10 mg of (Z)-endoxifen was added to a stoppered tube, and 0.01 ml of the selected solvent was added (1000 mg/ml solution). The tube was shaken vigorously for 1 minute and then incubated at a constant temperature of 25.0° C. for 15 minutes. If the solid was not completed dissolved, the tube was shaken again and placed at the constant temperature of 25.0° C. for another 15 minutes. If the solid was completely dissolved at this step, it was considered to be very soluble in the selected solvent system. If the solid was not dissolved by this step, another 0.09 ml was added (yielding a 100 mg/ml solution) and an attempt to further dissolve the solid was made by the same steps of shaking and incubating twice over as described previously. If the solid was completely dissolved at this step, it was considered freely soluble. If the solid was not dissolved by this step another 0.2 ml was added (yielding a 33.3 mg/ml solution) and an attempt to further dissolve the solid was made by the same steps of shaking and incubating twice over as described previously. If the solid was completely dissolved at this step, it was considered soluble. If the solid was not dissolved by this step another, 0.7 ml was added (yielding a 10 mg/ml solution) and an attempt to further dissolve the solid was made by the same steps of shaking and incubating twice over as described previously. If the solid was completely dissolved at this step, it was considered sparingly soluble. If the solid was not dissolved by this step the sample was considered to be slightly soluble or very slightly soluble and the solution was heated until the boiling point of the solvent system (max 100° C.) under stirring with a rate of 0.5° C. per minute temperature ramp rate to verify the solubility at high temperatures. The hot solution was after cooled to room temperature with a cooling rate of 0.5° C. per minute to verify if the sample had precipitated after up to 18 hours under magnetic stirring. The same procedure was also used for the solvent mixture solubility tests. The concentrations investigated for the solvent mixture stability were 40 mg/ml and 100 mg/ml. Some solutions in the following example were precipitated by cooling of the solution from a temperature between 50-100° C. to between 10-25° C. at a rate ranging from −0.2 to −0.5° C./minute resulting in a precipitate.

[1] = 2-propanol/tetrahydrofuran 95/5 v/v, 40 mg/mL
[2] = acetone/2-propanol 67/33 v/v, 40 mg/mL
[3] = acetone/tetrahydrofuran 95/5 v/v, 40 mg/mL
[4] = ethyl acetate/2-propanol 50/50 v/v, 100 mg/mL
[5] = ethyl acetate/tetrahydrofuran 95/5 v/v, 40 mg/mL
[6] = heptane/2-propanol 50/50 v/v, 40 mg/mL

- solubility (2-propanol/THF (95/5 v/v), organic solvent or mixture, thermodynamic from solid, 2-propanol/THF (95/5 v/v), high temperature, precipitated during cooling, read-out: Solubility): 40 mg/mL (≈ 107 mM)
- solubility (2-propanol/tetrahydrofuran 95/5 v/v, organic solvent or mixture, thermodynamic from solid, 2-propanol/tetrahydrofuran 95/5 v/v, 100 mg/mL, high temperature, read-out: Solubility HT (100 mg/mL): Sol. HT): < 100 mg/mL
- Solubility HT (40 mg/mL): Clear point [1]: 52.8 °C
- Solubility HT (40 mg/mL): Cloudy point [1]: 28.6 °C
- Solubility HT (40 mg/mL): Sol. HT (2-propanol/tetrahydrofuran 95/5 v/v, 40 mg/mL, high temperature): YES
- Solubility HT (40 mg/mL): Re-PPT (2-propanol/tetrahydrofuran 95/5 v/v, 40 mg/mL, on cooling): YES
- solubility (acetone/2-propanol 67/33 v/v, organic solvent or mixture, thermodynamic from solid, acetone/2-propanol 67/33 v/v, 100 mg/mL, high temperature, read-out: Solubility HT (100 mg/mL): Sol. HT): < 100 mg/mL
- Solubility HT (40 mg/mL): Clear point [2]: 36.8 °C
- Solubility HT (40 mg/mL): Re-PPT after 18 hours at −20° C. [2]: YES
- Solubility HT (40 mg/mL): Sol. HT (acetone/2-propanol 67/33 v/v, 40 mg/mL, high temperature): YES
- solubility (acetone/2-propanol (63/37 v/v), high temperature, precipitated after 18 hours at −20° C.): soluble
- solubility (acetone/THF (95/5 v/v), high temperature, precipitated after 18 hours at −20° C.): soluble
- solubility (acetone/acetonitrile 50/50 v/v, organic solvent or mixture, thermodynamic from solid, acetone/acetonitrile 50/50 v/v, 40 mg/mL, high temperature, read-out: Solubility HT (40 mg/mL): Sol. HT): < 40 mg/mL
- solubility (acetone/acetonitrile 50/50 v/v, organic solvent or mixture, thermodynamic from solid, acetone/acetonitrile 50/50 v/v, 100 mg/mL, high temperature, read-out: Solubility HT (100 mg/mL): Sol. HT): < 100 mg/mL
- solubility (acetone/acetonitrile (50/50 v/v), organic solvent or mixture, thermodynamic from solid, acetone/acetonitrile (50/50 v/v), high temperature, read-out: Solubility): < 40 mg/mL
- solubility (acetone/ethyl acetate 50/50 v/v, organic solvent or mixture, thermodynamic from solid, acetone/ethyl acetate 50/50 v/v, 40 mg/mL, high temperature, read-out: Solubility HT (40 mg/mL): Sol. HT): < 40 mg/mL
- solubility (acetone/ethyl acetate 50/50 v/v, organic solvent or mixture, thermodynamic from solid, acetone/ethyl acetate 50/50 v/v, 100 mg/mL, high temperature, read-out: Solubility HT (100 mg/mL): Sol. HT): < 100 mg/mL
- solubility (acetone/ethyl acetate (50/50 v/v), organic solvent or mixture, thermodynamic from solid, acetone/ethyl acetate (50/50 v/v), high temperature, read-out: Solubility): < 40 mg/mL
- solubility (acetone/tetrahydrofuran 95/5 v/v, organic solvent or mixture, thermodynamic from solid, acetone/tetrahydrofuran 95/5 v/v, 100 mg/mL, high temperature, read-out: Solubility HT (100 mg/mL): Sol. HT): < 100 mg/mL
- Solubility HT (40 mg/mL): Clear point [3]: 47.5 °C
- Solubility HT (40 mg/mL): Re-PPT after 18 hours at −20° C. [3]: YES
- Solubility HT (40 mg/mL): Sol. HT (acetone/tetrahydrofuran 95/5 v/v, 40 mg/mL, high temperature): YES
- solubility (butyl ethyl ether/methanol (50/50 v/v), organic solvent or mixture, thermodynamic from solid, butyl ethyl ether/methanol (50/50 v/v), high temperature, read-out: Solubility): 40 to 100 mg/mL (≈ 107 to 268 mM)
- solubility (butyl methyl ether/methanol 50/50 v/v, organic solvent or mixture, thermodynamic from solid, butyl methyl ether/methanol 50/50 v/v, 100 mg/mL, high temperature, read-out: Solubility HT (100 mg/mL): Sol. HT): < 100 mg/mL
- Solubility HT (40 mg/mL): Clear point (butyl methyl ether/methanol 50/50 v/v, 40 mg/mL): 31.8 °C
- Solubility HT (40 mg/mL): Sol. HT (butyl methyl ether/methanol 50/50 v/v, 40 mg/mL, high temperature): YES
- Solubility HT (100 mg/mL): Clear point [4]: 59.8 °C
- Solubility HT (100 mg/mL): Cloudy point [4]: 25 °C
- Solubility HT (100 mg/mL): Sol. HT (ethyl acetate/2-propanol 50/50 v/v, 100 mg/mL, high temperature): YES
- Solubility HT (100 mg/mL): Re-PPT (ethyl acetate/2-propanol 50/50 v/v, 100 mg/mL, on cooling): YES
- solubility (ethyl acetate/2-propanol (50/50 v/v), organic solvent or mixture, thermodynamic from solid, ethyl acetate/2-propanol (50/50 v/v), high temperature, precipitated during cooling, read-out: Solubility): 100 mg/mL (≈ 268 mM)
- solubility (ethyl acetate/THF (95/5 v/v), organic solvent or mixture, thermodynamic from solid, ethyl acetate/THF (95/5 v/v), high temperature, precipitated during cooling, read-out: Solubility): 40 mg/mL (≈ 107 mM)
- solubility (ethyl acetate/tetrahydrofuran 95/5 v/v, organic solvent or mixture, thermodynamic from solid, ethyl acetate/tetrahydrofuran 95/5 v/v, 100 mg/mL, high temperature, read-out: Solubility HT (100 mg/mL): Sol. HT): < 100 mg/mL
- Solubility HT (40 mg/mL): Clear point [5]: 56.3 °C
- Solubility HT (40 mg/mL): Cloudy point [5]: 51.3 °C
- Solubility HT (40 mg/mL): Sol. HT (ethyl acetate/tetrahydrofuran 95/5 v/v, 40 mg/mL, high temperature): YES
- Solubility HT (40 mg/mL): Re-PPT (ethyl acetate/tetrahydrofuran 95/5 v/v, 40 mg/mL, on cooling): YES
- solubility (heptane/2-propanol 50/50 v/v, organic solvent or mixture, thermodynamic from solid, heptane/2-propanol 50/50 v/v, 100 mg/mL, high temperature, read-out: Solubility HT (100 mg/mL): Sol. HT): < 100 mg/mL
- Solubility HT (40 mg/mL): Clear point [6]: 64.5 °C
- Solubility HT (40 mg/mL): Cloudy point [6]: 33.7 °C
- Solubility HT (40 mg/mL): Sol. HT (heptane/2-propanol 50/50 v/v, 40 mg/mL, high temperature): YES
- Solubility HT (40 mg/mL): Re-PPT (heptane/2-propanol 50/50 v/v, 40 mg/mL, on cooling): YES
- solubility (heptane/2-propanol (50/50 v/v), organic solvent or mixture, thermodynamic from solid, heptane/2-propanol (50/50 v/v), high temperature, precipitated during cooling, read-out: Solubility): 40 mg/mL (≈ 107 mM)
- solubility (heptane/ethyl acetate 50/50 v/v, organic solvent or mixture, thermodynamic from solid, heptane/ethyl acetate 50/50 v/v, 40 mg/mL, high temperature, read-out: Solubility HT (40 mg/mL): Sol. HT): < 40 mg/mL
- solubility (heptane/ethyl acetate 50/50 v/v, organic solvent or mixture, thermodynamic from solid, heptane/ethyl acetate 50/50 v/v, 100 mg/mL, high temperature, read-out: Solubility HT (100 mg/mL): Sol. HT): < 100 mg/mL
- solubility (heptane/ethyl acetate (50/50 v/v), organic solvent or mixture, thermodynamic from solid, heptane/ethyl acetate (50/50 v/v), high temperature, read-out: Solubility): < 40 mg/mL
- solubility (heptane/toluene 50/50 v/v, organic solvent or mixture, thermodynamic from solid, heptane/toluene 50/50 v/v, 40 mg/mL, high temperature, read-out: Solubility HT (40 mg/mL): Sol. HT): < 40 mg/mL
- solubility (heptane/toluene 50/50 v/v, organic solvent or mixture, thermodynamic from solid, heptane/toluene 50/50 v/v, 100 mg/mL, high temperature, read-out: Solubility HT (100 mg/mL): Sol. HT): < 100 mg/mL
- solubility (heptane/toluene (50/50 v/v), organic solvent or mixture, thermodynamic from solid, heptane/toluene (50/50 v/v), high temperature, read-out: Solubility): < 40 mg/mL
- solubility (water/2-propanol 50/50 v/v, aqueous with cosolvent or surfactant or cyclodextrin, thermodynamic from solid, water/2-propanol 50/50 v/v, 40 mg/mL, high temperature, read-out: Solubility HT (40 mg/mL): Sol. HT): < 40 mg/mL
- solubility (water/2-propanol 50/50 v/v, aqueous with cosolvent or surfactant or cyclodextrin, thermodynamic from solid, water/2-propanol 50/50 v/v, 100 mg/mL, high temperature, read-out: Solubility HT (100 mg/mL): Sol. HT): < 100 mg/mL
- solubility (water/2-propanol (50/50 v/v), aqueous with cosolvent or surfactant or cyclodextrin, thermodynamic from solid, water/2-propanol (50/50 v/v), high temperature, read-out: Solubility): < 40 mg/mL
- solubility (water/THF (50/50 v/v), aqueous with cosolvent or surfactant or cyclodextrin, thermodynamic from solid, water/THF (50/50 v/v), high temperature, read-out: Solubility): < 40 mg/mL
- solubility (water/acetonitrile 50/50 v/v, aqueous with cosolvent or surfactant or cyclodextrin, thermodynamic from solid, water/acetonitrile 50/50 v/v, 40 mg/mL, high temperature, read-out: Solubility HT (40 mg/mL): Sol. HT): < 40 mg/mL
- solubility (water/acetonitrile 50/50 v/v, aqueous with cosolvent or surfactant or cyclodextrin, thermodynamic from solid, water/acetonitrile 50/50 v/v, 100 mg/mL, high temperature, read-out: Solubility HT (100 mg/mL): Sol. HT): < 100 mg/mL
- solubility (water/acetonitrile (50/50 v/v), aqueous with cosolvent or surfactant or cyclodextrin, thermodynamic from solid, water/acetonitrile (50/50 v/v), high temperature, read-out: Solubility): < 40 mg/mL
- solubility (water/tetrahydrofuran 95/5 v/v, aqueous with cosolvent or surfactant or cyclodextrin, thermodynamic from solid, water/tetrahydrofuran 95/5 v/v, 40 mg/mL, high temperature, read-out: Solubility HT (40 mg/mL): Sol. HT): < 40 mg/mL
- solubility (water/tetrahydrofuran 95/5 v/v, aqueous with cosolvent or surfactant or cyclodextrin, thermodynamic from solid, water/tetrahydrofuran 95/5 v/v, 100 mg/mL, high temperature, read-out: Solubility HT (100 mg/mL): Sol. HT): < 100 mg/mL
Structure (SMILES): CC/C(=C(\c1ccc(O)cc1)c1ccc(OCCNC)cc1)c1ccccc1 [(Z)-endoxifen, (Z)-4-(1-(4-(2-(methylamino)ethoxy)phenyl)-2-phenylbut-1-enyl)phenol]

Reference: patent US20250066286A1, “COMPOSITIONS OF (Z)-ENDOXIFEN AND METHODS OF ENRICHMENT THEREOF” (Atossa Therapeutics, Inc., priority 2022, published 2025)
